System: spontaneously hypertensive (SH) rats
Test: antihypertensive activity test in spontaneously hypertensive (SH) rats
Type: in vivo, rat
Conditions: administered intraperitoneally
Experimental: The present tripeptides have antihypertensive activity. This antihypertensive activity was determined using a test procedure which involved administration of representative compounds to spontaneously hypertensive (SH) rats.

NC(=O)[C@@H]1CCCN1C(=O)[C@H](Cc1c[nH]cn1)NC(=O)[C@@H]1CCC(=O)N1 [TRH, L-pyroglutamyl-L-histidyl-L-proline-amide]
antihypertensive activity: significant antihypertensive activity
